# Key:
# [1] = tested on: human limbal explants; experiment: Epithelial outgrowth from human limbal explants cultured on intact AM with kinase inhibitors; format: cell-based; settings: 10 μM
# Experimental: Human AM was provided by Bio-Tissue (Miami, Fla.) and stored at −80° C. before use. AM was devitalized by freezing and thawing and washed three times with HBSS before being fastened onto a 30 mm culture insert, Millicel-CM (which generated an insert with 23 mm diameter covered by AM), and placed in a 6 well plate (Meller, D. and Tseng S C G, Invest Ophthalmol Vis Sci., 40:878-86, 1999).
# After removal of excessive sclera, iris, corneal endothelium, conjunctiva, and Tenon's capsule, the limbal ring was separated by a 7.5 mm trephine from donor human corneas. Each limbal ring was rinsed 3 times with SHEM media. The limbal ring was then exposed for 10 min to 1.2 units/ml Dispase II in Mg^2+- and Ca^2+-free HBSS at 37° C. under 95% humidity and 5% CO2. Following three rinses with SHEM medium, each limbal ring was subdivided into two halves and each half further subdivided into 6 pieces of 1×1.5×2.5 mm explants. To eliminate variations of age, sex, and race, explants from the corresponding position of the same donor cornea were selected for the control and the experimental group, respectively. An explant was placed on the center of intact AM or plastic with the epithelial side facing up and cultured in SHEM medium. The experimental group was added with the inhibitor of desired concentration, while the control group was added with the same concentration of DMSO as the vehicle which was used to dissolve each inhibitor. The culture was maintained at 37° C. under 95% humidity and 5% CO2, the medium was changed every other day, and their outgrowth was monitored daily for 17 days using an inverted phase microscope (Nikon, Japan). The outgrowth area was digitized every other day by Adobe Photoshop 5.5 and analyzed by NIH ImageJ 1.30v (NIH, Bethesda, Md.).
# All experiments were performed at least in triplicate. Summary data were reported as means±S.D., compiled and analyzed by MicroSoft Excel™ (MicroSoft, Redmont, Wash.). The mean and standard deviation were calculated for each group using the appropriate version of Student's unpaired t-test. Test results were reported as two-tailed p values, where p<0.05 was considered statistically significant.
# [2] = tested on: p44/42 MAPK; experiment: Western blot of p44/42 MAPK phosphorylation in limbal epithelial cells expanded on intact AM; format: cell-based, human; settings: 10 μM
# [3] = tested on: corneal limbal epithelial cells; experiment: Type IV collagen immunostaining of epithelial outgrowth from human limbal explants on denuded AM; format: cell-based; settings: explant on dAM in SHEM
# [4] = tested on: rabbit corneal limbal explant; experiment: Rabbit limbal explant outgrowth on type I collagen coated insert, airlift culture; format: cell-based; settings: SHEM
# Experimental: (§1) Human limbal tissue cubes can be placed in the alternative on the center of type I collagen coated inserts and cultured in SHEM medium under submerge and airlift manners, of which the later was also added with p38 inhibitor. In the submerge manner, 4 ml culture medium was added to the culture dish to cover the entire limbal explant. In the airlift manner, 2 ml culture medium was added so as to let the insert bottom sit on the air-liquid interface. That is, the explant was exposed to air, but the remaining explant stroma was submerged in the medium meniscus. In the airlift+p38 inhibitor group, p 38 inhibitor SB 203580 was added to culture medium at a concentration of 10 μM. Cultures were incubated at 37° C. under 5% CO2 and 95% air, and the medium is changed every 2 days. Rabbit limbal explants are also cultured in the same fashion as the human tissue. Limbal tissue cubes are placed on the center of type I collagen coated inserts and cultured under airlift manner in SHEM medium with or without p38 inhibitor SB203580 for 1 week.
# To study the effect of p38 inhibitor on the outgrowth epithelial sheet, rabbit corneal limbal explant is cultured on the type I collagen coated insert under the airlift manner in SHEM medium for 1 week with or without addition of p38 inhibitor (FIG. 2).
# [5] = tested on: limbal epithelial progenitor cells; experiment: K12 and K10 immunostaining of human limbal explants in airlift culture; format: cell-based; settings: SHEM, 2 weeks, 10 μM
# Experimental: as §1
# To study the effect of p38 inhibitor on the differentiation of limbal epithelial progenitor cells, human corneal limbal explants were cultured under submerge and airlift manners, of which the later was added with or without p38 inhibitor, on type I collagen coated inserts in SHEM medium for 2 weeks. […]
# [6] = tested on: p38 MAPK; experiment: Western blot of p38 MAPK phosphorylation in limbal epithelial cells expanded on intact AM; settings: 10 μM
smiles,measurement,setting,value
C[S+]([O-])c1ccc(-c2nc(-c3ccncc3)c(-c3ccc(F)cc3)[nH]2)cc1 (stereo not shown) [SB203580],day at which epithelial outgrowth was noted / started,[1],5 days
same,epithelial outgrowth,"[1]; limbal explant on intact AM in SHEM, up to 17 days, vs DMSO control",did not change the outgrowth
same,phosphorylation of p44/42 MAPK (Thr202 and Tyr204),[2],did increase
same,type IV collagen staining of outgrowth epithelial cells,[3]; 2 weeks,intracellular staining
same,type IV collagen staining of outgrowth epithelial cells,[3]; 4 weeks,strong linear band staining
same,outgrowth rate based on outgrowth surface area,[4]; 1 week,not inhibited
same,outgrowth sheet in H&E stained cross-sections,[4]; with p38 inhibitor,intact and consisted of uniformly two layers
same,K10 positive cells in limbal and corneal epithelium,[5],no K10 positive cells
same,K12 expression in the limbal epithelium,[5],restored
same,phosphorylation at Thr180/Tyr182 of p38 MAPK,[6],abolished
